Assay results as given in paper PMC12194305, “Assessing Bioconcentration and Biotransformation of BDE-47 In Vitro: The Relevance of Bioavailable and Intracellular Concentrations” (Journal of Xenobiotics, 2025).

Experiments:
[1] = cited from earlier work
ZFL cells [2] = experiment: Substrate depletion in ZFL cells, inputs of the IVIVE-BCF model; type: in vitro ADME, zebrafish
Source text: One of the objectives was to assess whether cell lines can be used within the BCF-IVIVE model, relying on intrinsic clearance in vitro, to estimate the biotransformation rate which is subsequently extrapolated to adult fish. This approach is based on the model developed by Nichols et al. and is endorsed by the OECD guideline 319A [10] and OECD 2018a. Briefly, the log10-transformed substrate experimental concentrations in the medium (Cmed) were plotted against time, and the first-order elimination rate constant (ke, h^−1) was determined as −2.3 × slope of the log-linear decline. Black et al. indicate that a correction to the elimination rate constant (ke) should be applied when the following conditions are met: (i) abiotic losses from volatilization, calculated by comparing the recovery of negative control samples (“no cells”) at each exposure time to the initial time, fall outside the acceptable range of 80–120%, (ii) the loss process follows first order kinetics, and (iii) the ratio of ke and the volatilization rate constant (kvolat) is below 10 (ke/kvolat < 10). Then, the constant corrected for losses due to volatilization (ke,loss) was determined as −2.3 × the difference of the slopes of the sample and the loss control of the log-linear descent. The in vitro constant was then extrapolated to obtain an in vivo metabolization constant (kMET). This was done using experimental cell concentration (CHEP, 10^6 cells/mL) and default parameters derived from rainbow trout. In this study, in addition to estimating BCF with the official model parameters derived from rainbow trout (BCFIVIVE,RT), BCF was also estimated with the literature-derived parameters for zebrafish (BCFIVIVE,ZF), due to the use of ZFL cells. Finally, the BCF was estimated by the ratio of concentration in the organism to concentration in the medium, following the standardized model. […]

ZFL cells [3] = experiment: Cell exposure for bioaccumulation: Ccell, Cmedium and in vitro BCF (ratio and toxicokinetic fit); type: cell-based, zebrafish; conditions: for BCFexp, 24 h / BCFexp, 48 h / BCFexp, 72 h: Ccell,exp/Cmedium
Description: A total of 2 × 10^6 ZFL cells were plated in P100 glass dishes and incubated for 24 h under standard culture conditions. Subsequently, the culture medium was replaced with a contaminated medium, which, according to the cell viability assay, maintained viability above 70% by the end of the exposure period (Section 2.3). Cells were exposed to 1.8 and 2.6 mg⋅L^−1 for 24, 48 and 72 h, in two independent experiments. Parallel experiments were conducted under identical conditions to assess losses: one set included cells without contaminated medium, and another consisted of contaminated medium without cells (“no cells”). The obtained pellets were collected from all exposure time, dried under a gentle stream of nitrogen and weighed on a precision analytical balance (±0.00001 g). Finally, the dried cell pellets and their corresponding medium collected at all exposure times, including the starting medium (“t = 0 h”), were stored at −20 °C until analysis.
Extraction of BDE-47 and its metabolites was performed simultaneously for each of the samples, cells, and exposure media. Finally, 500 μL of exposure medium was extracted with 500 μL of hexane: MTBE mixture (1:1) shaken vigorously with a vortex for 30 s. For cells, the pellet obtained (~5 mg) was treated with same solvents but assisted with an ultrasound probe for 1 min at 30% of amplitude and a pulse on/off, with 2 s/5 s for cell samples. The internal standards (IS) BDE-99 and TCS had been previously added. The mixture was centrifuged for 10 min at 10,000 rpm. The organic phase was separated, and the extraction step was repeated. Remaining extracts were evaporated to dryness under a gentle stream of nitrogen and reconstituted in 200 μL isooctane. A total of 80 μL of the volume obtained was derivatized with 20 μL of MTBSTFA at 70 °C for 30 min in the oven and injected into GC-μECD-MS for the OH-BDE quantification. PBDEs and MeO-BDEs were determined by direct injection of the remaining volume of isooctane extracts into the GC-µECD-MS, because PBDEs are not stable after the derivatization process. Due to the difference in concentration in the samples of the metabolites and BDE-47, a double determination was performed and diluted with isooctane for the detection of the latter, so that it was interpolated on the same calibration curve.
The GC–MS-µECD system was used for the separation and determination of BDE-47 and its metabolites. The MS was used for the identification and the µECD for their quantification. Both detectors operate simultaneously, thanks to the use of a flow splitter placed at the end of the chromatographic column. Sample (1 μL) were injected in splitless mode at 280 °C. Helium was used as carrier gas at a constant pressure of 22 psi. Column temperature was programmed to increase from 130 °C (1 min) to 222 °C (1 min) at a rate of 90 °C·min^−1, then to 245 °C (1 min) at 1 °C·min^−1 and finally to 280 °C (8 min) at 45 °C·min^−1. The μECD temperature was set at 320 °C and nitrogen was used as makeup gas (30 mL·min^−1). The flow ratio of the splitter was 1:1, thanks to the helium input and the restrictor length of each detector, according to the manual supplied by Agilent Technologies. m/z values for the SIM program are collected in Table S1.
The first quantitative estimation of BCF was carried out according to the definition of BCF in the official OECD 305 guideline; that is, the ratio between the chemical concentration in the cells (Ccell) and the chemical concentration of the surrounding medium (Cmedium). As explained earlier, Ccell can be determined experimentally (Ccell,exp) or by MBM (Ccell,MBM). Both these terms can be related to the experimentally determined concentration in the medium (Cmedium), the free concentration experimentally determined (Cfree,exp) or the free concentration estimated using MBM (Cfree,MBM). […]

zebrafish = experiment: IVIVE-BCF model with zebrafish default parameters; type: in vitro ADME; conditions: for BCFIVIVE, ZF: ZFL cells, zebrafish parameters
Source text: One of the objectives was to assess whether cell lines can be used within the BCF-IVIVE model, relying on intrinsic clearance in vitro, to estimate the biotransformation rate which is subsequently extrapolated to adult fish. This approach is based on the model developed by Nichols et al. and is endorsed by the OECD guideline 319A [10] and OECD 2018a. Briefly, the log10-transformed substrate experimental concentrations in the medium (Cmed) were plotted against time, and the first-order elimination rate constant (ke, h^−1) was determined as −2.3 × slope of the log-linear decline. Black et al. indicate that a correction to the elimination rate constant (ke) should be applied when the following conditions are met: (i) abiotic losses from volatilization, calculated by comparing the recovery of negative control samples (“no cells”) at each exposure time to the initial time, fall outside the acceptable range of 80–120%, (ii) the loss process follows first order kinetics, and (iii) the ratio of ke and the volatilization rate constant (kvolat) is below 10 (ke/kvolat < 10). Then, the constant corrected for losses due to volatilization (ke,loss) was determined as −2.3 × the difference of the slopes of the sample and the loss control of the log-linear descent. The in vitro constant was then extrapolated to obtain an in vivo metabolization constant (kMET). This was done using experimental cell concentration (CHEP, 10^6 cells/mL) and default parameters derived from rainbow trout. In this study, in addition to estimating BCF with the official model parameters derived from rainbow trout (BCFIVIVE,RT), BCF was also estimated with the literature-derived parameters for zebrafish (BCFIVIVE,ZF), due to the use of ZFL cells. Finally, the BCF was estimated by the ratio of concentration in the organism to concentration in the medium, following the standardized model. The concentration in the organism was predicted using the one-compartment model given by Arnot and Gobas, which includes the rate constants describing chemical uptake (k1), loss through the gills (k2), fecal egestion (kE), growth rate (kG) and metabolization rate (kMET). Except for kMET, which is estimated experimentally in vitro, the rest are only dependent on the log KOW of the compound. On the other hand, due to the use of cell lines, the free concentration estimated was introduced instead of the total concentration in the medium (CW,TOT).

[4] = Cnominal 1.8 mg·L^−1, first-order toxicokinetic fit k1/k2

Brc1ccc(Oc2ccc(Br)cc2Br)c(Br)c1 [BDE-47, 2,2′,4,4′-tetrabromodiphenyl ether]
Henry's law constant (KH) ([1]; at 30 °C): 1.79 ± 0.21 Pa·m^3·mol^−1 | log Kow [1]: 6.81 | log DPDMS/medium ([1]; partition constant PDMS fiber/medium): 5.84 | ke,loss (ZFL cells [2]; Experiment 1.8 mg·L-1, corrected for volatilization losses): 0.012 h⁻¹ | ke,loss (ZFL cells [2]; Experiment 2.6 mg·L-1, corrected for volatilization losses): 0.002 h⁻¹ | Cw, TOT (Cfree,exp) (ZFL cells [2]; Experiment 2.6 mg·L-1, input parameter): 0.0016 mg/L | Recovery in the mass balance (ZFL cells [3]; 24 h, 1.8 mg·L^−1, BDE-47 plus metabolites in cells, medium and losses): 77% | Recovery in the mass balance (ZFL cells [3]; 24 h, 2.6 mg·L^−1): 79% | Recovery in the mass balance (ZFL cells [3]; 48 h, 1.8 mg·L^−1): 70% | Recovery in the mass balance (ZFL cells [3]; 48 h, 2.6 mg·L^−1): 82% | Recovery in the mass balance (ZFL cells [3]; 72 h, 1.8 mg·L^−1): 74% | Recovery in the mass balance (ZFL cells [3]; 72 h, 2.6 mg·L^−1): 97% | average decrease of Cmedium over time from nominal concentration (ZFL cells [3]; Cnominal 1.8 mg·L^−1): 79% | BCFexp, 24 h (ZFL cells [3]; Cnominal 1.8 mg·L^−1): 50 L/kg | BCFexp, 48 h (ZFL cells [3]; Cnominal 1.8 mg·L^−1): 83 L/kg | BCFexp, 72 h (ZFL cells [3]; Cnominal 1.8 mg·L^−1): 100 L/kg | BCFk Ccell exp/Cfree,exp (ZFL cells [3]; [4]): 74,300 L·kg^−1 | BCFk Ccell exp/Cw (ZFL cells [3]; [4]): 30 L/kg | average decrease of Cmedium over time from nominal concentration (ZFL cells [3]; Cnominal 2.6 mg·L^−1): 33% | BCFexp, 24 h (ZFL cells [3]; Cnominal 2.6 mg·L^−1): 51 L/kg | BCFexp, 48 h (ZFL cells [3]; Cnominal 2.6 mg·L^−1): 55 L/kg | BCFexp, 72 h (ZFL cells [3]; Cnominal 2.6 mg·L^−1): 80 L/kg | BCFk Ccell exp/Cfree,exp (ZFL cells [3]; Cnominal 2.6 mg·L^−1, first-order toxicokinetic fit k1/k2): 63,435 L·kg^−1 | CLH (zebrafish; 1.8 mg·L-1, ZF): 2.01 mL/h/kg | CLIN VITRO, INT (zebrafish; 1.8 mg·L-1, ZF): 0.0220 mL/h/106 cells | kMET (zebrafish; 1.8 mg·L-1, ZF): 0.0022 day⁻¹ | CLH (zebrafish; 2.6 mg·L-1, ZF): 0.333 mL/h/kg | CLIN VITRO, INT (zebrafish; 2.6 mg·L-1, ZF): 0.0037 mL/h/106 cells | kMET (zebrafish; 2.6 mg·L-1, ZF): 0.0004 day⁻¹ | BCFIVIVE, ZF (zebrafish; Cnominal 1.8 mg·L^−1): 13,885 L·kg^−1 | BCFIVIVE, ZF (zebrafish; Cnominal 2.6 mg·L^−1): 14,926 L·kg^−1
